# Experimental data as given in patent US20220081435A1, “ANDROGEN RECEPTOR PROTEIN DEGRADERS” (THE REGENTS OF THE UNIVERSITY OF MICHIGAN, priority 2019, published 2022).
# Target: T1, AR protein (Homo sapiens, UniProt P10275, T878A)
# T1 construct: The percent AR protein degradation induced by these compounds at various concentrations in LNCaP cells; host or cells: LNCaP
# T1 sequence (P10275 1-920 T878A): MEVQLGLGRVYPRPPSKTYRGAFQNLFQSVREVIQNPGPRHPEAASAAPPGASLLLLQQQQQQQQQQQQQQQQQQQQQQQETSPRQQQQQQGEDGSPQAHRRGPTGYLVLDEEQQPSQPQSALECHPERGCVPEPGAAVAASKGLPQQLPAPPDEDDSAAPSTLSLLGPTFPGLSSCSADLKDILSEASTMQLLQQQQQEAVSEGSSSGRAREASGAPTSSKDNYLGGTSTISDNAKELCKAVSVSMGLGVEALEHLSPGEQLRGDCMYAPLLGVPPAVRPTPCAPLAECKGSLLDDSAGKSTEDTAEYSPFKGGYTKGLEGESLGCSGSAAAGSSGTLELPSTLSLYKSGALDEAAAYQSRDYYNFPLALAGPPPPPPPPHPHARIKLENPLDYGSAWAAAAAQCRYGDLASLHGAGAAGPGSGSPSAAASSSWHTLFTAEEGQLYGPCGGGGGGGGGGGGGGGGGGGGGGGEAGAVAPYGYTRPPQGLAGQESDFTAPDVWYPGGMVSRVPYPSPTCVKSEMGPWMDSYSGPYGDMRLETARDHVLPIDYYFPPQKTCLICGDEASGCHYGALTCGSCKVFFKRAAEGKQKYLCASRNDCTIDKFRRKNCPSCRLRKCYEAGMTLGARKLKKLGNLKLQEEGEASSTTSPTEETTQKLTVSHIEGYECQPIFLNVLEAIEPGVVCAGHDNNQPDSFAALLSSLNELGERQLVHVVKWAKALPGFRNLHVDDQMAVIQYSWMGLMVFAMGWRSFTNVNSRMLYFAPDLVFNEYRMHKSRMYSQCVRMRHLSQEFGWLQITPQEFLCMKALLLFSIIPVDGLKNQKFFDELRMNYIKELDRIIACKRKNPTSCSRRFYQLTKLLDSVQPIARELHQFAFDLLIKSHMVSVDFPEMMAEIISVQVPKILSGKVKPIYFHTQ
# Test: AR protein degradation in LNCaP cells (Western blotting)
# Format: cell-based
# Details: treatment time 6 h, average of three independent experiments; for Dmax at 0.01 µM / Dmax at 0.1 µM / Dmax at 1 µM / Dmax at 10 µM: LNCaP; for Dmax at 0.1 µM / Dmax at 1 µM / Dmax at 10 µM: read-out: % AR protein degradation in LNCaP Cells
# Protocol: Cell lines and Cell Culture: All the LNCaP, VCaP and 22RV1 cells used were purchased from American Type Culture Collection (ATCC). […] All of the cells were supplemented with 10% fetal bovine serum (Invitrogen) at 37° C. in a humidified 5% CO2 incubator.
# Western Blotting. Treated cells were lysed by RIPA buffer supplemented with protease and phosphatase inhibitors. […] Software ImageJ was used to quantify the percentage of AR degradation. The net protein bands and loading controls are calculated by deducting the background from the inverted band value. The final relative quantification values are the ratio of net band to net loading control.
Structure (SMILES),Dmax at 0.01 µM (0.01 μM) [%],Dmax at 0.1 µM (0.1 μM) [%],Dmax at 1 µM (1 μM) [%],% AR protein degradation in LNCaP Cells (0.01 μM) [%],% AR protein degradation in LNCaP Cells (0.1 μM) [%],% AR protein degradation in LNCaP Cells (1 μM) [%],Dmax at 10 µM (10 μM) [%],% AR protein degradation in LNCaP Cells (10 μM) [%]
"Cc1ncsc1-c1ccc(CNC(=O)C2C[C@@H](O)CN2C(=O)[C@@H](NC(=O)CCCCCCCCNC(=O)c2ccc(N3C(=S)N(c4ccc(C#N)c(C(F)(F)F)c4)C(=O)C3(C)C)cc2F)C(C)(C)C)cc1 (stereo partly drawn) [Compound 14, (4R)-1-((S)-2-(9-(4-(3-(4-Cyano-3-(trifluoromethyl)phenyl)-5,5-dimethyl-4-oxo-2-thioxoimidazolidin-1-yl)-2-fluorobenzamido)nonanamido)-3,3-dimethylbutanoyl)-4-hydroxy-N-(4-(4-methylthiazol-5-yl)benzyl)pyrrolidine-2-carboxamide]",15,66,87,–,–,–,–,–
"CC(=O)N[C@H](C(=O)N1C[C@H](O)C[C@H]1C(=O)N[C@@H](CC(=O)N1CCC(N2CCC(C#Cc3ccc(C(=O)N[C@H]4C(C)(C)[C@H](Oc5ccc(C#N)c(Cl)c5)C4(C)C)cc3)CC2)CC1)c1ccc(-c2scnc2C)cc1)C(C)(C)C [Compound 36, (2S,4R)-1-((S)-2-Acetamido-3,3-dimethylbutanoyl)-N—((S)-3-(4-((4-(((1r,3r)-3-(3-chloro-4-cyanophenoxy)-2,2,4,4-tetramethylcyclobutyl)carbamoyl)phenyl)ethynyl)-[1,4′-bipiperidin]-1′-yl)-1-(4-(4-methylthiazol-5-yl)phenyl)-3-oxopropyl)-4-hydroxypyrrolidine-2-carboxamide]",–,–,–,39,77,99,–,–
"Cc1ncsc1-c1ccc(CNC(=O)C2C[C@@H](O)CN2C(=O)[C@@H](NC(=O)CCCCCCCCCNC(=O)c2ccc(N3C(=S)N(c4ccc(C#N)c(C(F)(F)F)c4)C(=O)C3(C)C)cc2F)C(C)(C)C)cc1 (stereo partly drawn) [Compound 15, (4R)-1-((S)-2-(10-(4-(3-(4-Cyano-3-(trifluoromethyl)phenyl)-5,5-dimethyl-4-oxo-2-thioxoimidazolidin-1-yl)-2-fluorobenzamido)decanamido)-3,3-dimethylbutanoyl)-4-hydroxy-N-(4-(4-methylthiazol-5-yl)benzyl)pyrrolidine-2-carboxamide]",10,48,88,–,–,–,–,–
"Cc1ncsc1-c1ccc(CNC(=O)C2C[C@@H](O)CN2C(=O)[C@@H](NC(=O)CCCCCCCCCCCNC(=O)c2ccc(N3C(=S)N(c4ccc(C#N)c(C(F)(F)F)c4)C(=O)C3(C)C)cc2F)C(C)(C)C)cc1 (stereo partly drawn) [Compound 17, (4R)-1-((S)-2-(12-(4-(3-(4-Cyano-3-(trifluoromethyl)phenyl)-5,5-dimethyl-4-oxo-2-thioxoimidazolidin-1-yl)-2-fluorobenzamido)dodecanamido)-3,3-dimethylbutanoyl)-4-hydroxy-N-(4-(4-methylthiazol-5-yl)benzyl)pyrrolidine-2-carboxamide]",–,30,69,–,–,–,75,–
"Cc1ncsc1-c1ccc(CNC(=O)C2C[C@@H](O)CN2C(=O)[C@@H](NC(=O)CCCN2CCN(c3ccc(C#Cc4ccc(N5C(=S)N(c6ccc(C#N)c(C(F)(F)F)c6)C(=O)C5(C)C)cc4)cn3)CC2)C(C)(C)C)cc1 (stereo partly drawn) [Compound 20, (4R)-1-((S)-2-(4-(4-(5-((4-(3-(4-Cyano-3-(trifluoromethyl)phenyl)-5,5-dimethyl-4-oxo-2-thioxoimidazolidin-1-yl)phenyl)ethynyl)pyridin-2-yl)piperazin-1-yl)butanamido)-3,3-dimethylbutanoyl)-4-hydroxy-N-(4-(4-methylthiazol-5-yl)benzyl)pyrrolidine-2-carboxamide]",–,50,80,–,–,–,80,–
"Cc1ncsc1-c1ccc([C@H](C)NC(=O)C2C[C@@H](O)CN2C(=O)[C@@H](NC(=O)CCN2CCN(c3ccc(C#Cc4ccc(N5C(=S)N(c6ccc(C#N)c(C(F)(F)F)c6)C(=O)C5(C)C)cc4)cn3)CC2)C(C)(C)C)cc1 (stereo partly drawn) [Compound 23, (4R)-1-((S)-2-(3-(4-(5-((4-(3-(4-Cyano-3-(trifluoromethyl)phenyl)-5,5-dimethyl-4-oxo-2-thioxoimidazolidin-1-yl)phenyl)ethynyl)pyridin-2-yl)piperazin-1-yl)propanamido)-3,3-dimethylbutanoyl)-4-hydroxy-N—((S)-1-(4-(4-methylthiazol-5-yl)phenyl)ethyl)pyrrolidine-2-carboxamide]",34,51,78,–,–,–,–,–
"Cc1ncsc1-c1ccc(CNC(=O)C2C[C@@H](O)CN2C(=O)[C@@H](NC(=O)CCCCCCc2ccc(C#Cc3ccc(N4C(=S)N(c5ccc(C#N)c(C(F)(F)F)c5)C(=O)C4(C)C)cc3)cn2)C(C)(C)C)cc1 (stereo partly drawn) [Compound 19, (4R)-1-((S)-2-(7-(5-((4-(3-(4-Cyano-3-(trifluoromethyl)phenyl)-5,5-dimethyl-4-oxo-2-thioxoimidazolidin-1-yl)phenyl)ethynyl)pyridin-2-yl)heptanamido)-3,3-dimethylbutanoyl)-4-hydroxy-N-(4-(4-methylthiazol-5-yl)benzyl)pyrrolidine-2-carboxamide]",30,63,96,–,–,–,–,–
"Cc1ncsc1-c1ccc(CNC(=O)C2C[C@@H](O)CN2C(=O)[C@@H](NC(=O)CCCCCCCNC(=O)c2ccc(N3C(=S)N(c4ccc(C#N)c(C(F)(F)F)c4)C(=O)C3(C)C)cc2F)C(C)(C)C)cc1 (stereo partly drawn) [Compound 13, (4R)-1-((S)-2-(8-(4-(3-(4-Cyano-3-(trifluoromethyl)phenyl)-5,5-dimethyl-4-oxo-2-thioxoimidazolidin-1-yl)-2-fluorobenzamido)octanamido)-3,3-dimethylbutanoyl)-4-hydroxy-N-(4-(4-methylthiazol-5-yl)benzyl)pyrrolidine-2-carboxamide]",8,29,65,–,–,–,–,–
"Cc1ncsc1-c1ccc([C@H](C)NC(=O)C2C[C@@H](O)CN2C(=O)[C@@H](NC(=O)CCCN2CCN(c3ccc(C#Cc4ccc(N5C(=S)N(c6ccc(C#N)c(C(F)(F)F)c6)C(=O)C5(C)C)cc4)cn3)CC2)C(C)(C)C)cc1 (stereo partly drawn) [Compound 21, (4R)-1-((S)-2-(4-(4-(5-((4-(3-(4-Cyano-3-(trifluoromethyl)phenyl)-5,5-dimethyl-4-oxo-2-thioxoimidazolidin-1-yl)phenyl)ethynyl)pyridin-2-yl)piperazin-1-yl)butanamido)-3,3-dimethylbutanoyl)-4-hydroxy-N—((S)-1-(4-(4-methylthiazol-5-yl)phenyl)ethyl)pyrrolidine-2-carboxamide]",37,61,92,–,–,–,–,–
"Cc1ncsc1-c1ccc([C@H](C)NC(=O)C2C[C@@H](O)CN2C(=O)[C@@H](NC(=O)N2CCN(c3ccc(C#Cc4ccc(N5C(=S)N(c6ccc(C#N)c(C(F)(F)F)c6)C(=O)C5(C)C)cc4)cn3)CC2)C(C)(C)C)cc1 (stereo partly drawn) [Compound 25, 4-(5-((4-(3-(4-Cyano-3-(trifluoromethyl)phenyl)-5,5-dimethyl-4-oxo-2-thioxoimid-azolidin-1-yl)phenyl)ethynyl)pyridin-2-yl)-N-((2S)-1-((4R)-4-hydroxy-2-(((S)-1-(4-(4-methylthiazol-5-yl)phenyl)ethyl)carbamoyl)pyrrolidin-1-yl)-3,3-dimethyl-1-oxobutan-2-yl)piperazine-1-carboxamide]",–,–,–,–,0,12,–,0
